Data from patent US8809389B2, “Substituted alkynyl phenoxy compounds as new synergists in pesticidal compositions” (Endura S.p.A., priority 2009, dated 2014).

Key:
[1] = molecular target: T1, purified resistance-associated esterase (E4) (Myzus persicae, UniProt P35501); assay: Esterase interference assay (indirect determination of esterase inhibition); type: biochemical; details: for Esterase protection (%) after pre-incubation with compound: no esterase = 0%, uninhibited E4 = 100%
T1 construct: 5 g of aphids (stored at −20° C.) were homogenised in 0.02 M phosphate buffer pH 7.0; from tissue; host or cells: whole Myzus persicae aphids, clone 794JZ; homogenate purified over G-25 and DEAE Sepharose Fast Flow
T1 sequence (P35501 24-552): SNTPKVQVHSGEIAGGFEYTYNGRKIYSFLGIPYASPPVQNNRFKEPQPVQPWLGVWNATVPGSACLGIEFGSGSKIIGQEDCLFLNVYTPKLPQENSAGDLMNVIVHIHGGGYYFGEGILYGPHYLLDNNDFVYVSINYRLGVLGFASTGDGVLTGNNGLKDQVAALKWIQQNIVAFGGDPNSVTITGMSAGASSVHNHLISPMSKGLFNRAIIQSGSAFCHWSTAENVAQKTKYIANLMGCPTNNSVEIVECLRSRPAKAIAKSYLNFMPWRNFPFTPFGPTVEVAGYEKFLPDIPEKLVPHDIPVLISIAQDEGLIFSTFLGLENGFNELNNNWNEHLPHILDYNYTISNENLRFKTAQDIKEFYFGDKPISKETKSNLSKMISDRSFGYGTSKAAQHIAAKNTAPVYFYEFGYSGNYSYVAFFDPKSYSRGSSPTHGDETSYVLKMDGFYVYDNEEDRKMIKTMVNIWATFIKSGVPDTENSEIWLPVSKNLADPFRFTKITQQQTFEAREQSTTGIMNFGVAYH
Source text: Measuring the in vitro inhibition is not straight forward, as synergists may bind to a site other than the active site.
The esterase used was the well-characterised resistance associated esterase purified from M. persicae, E4, (aphid clone: 794JZ) as per Devonshire (1977) with some modifications(Devonshire A L, The properties of a carboxylesterase from the peach-potato aphid, Myzus persicae (Sulz.) and its role in conferring insecticide resistance. Biochem J 167: 675-683 (1977)). Briefly, 5 g of aphids (stored at −20° C.) were homogenised in 0.02 M phosphate buffer pH 7.0 and centrifuged at 20 000 g for 10 min. The supernatant was passed through a G-25 column using 0.02M Tris/HCl, pH 8.5 buffer. Unretarded fractions containing esterase activity were further chromatographed through DEAF Sepharose Fast Flow (Amersham Biosciences) and eluted with a linear 0-0.35 M NaCl gradient in 500 ml of Tris/HCl as above. Fractions containing carboxylesterase activity in the form of E4 were concentrated, desalted, and buffer exchanged to 0.02 M phosphate pH 7.0 for storage.
Interactions of the purified resistance-associated esterase (E4) with Compound of Example 2, Compound of Example 3, Compound of Example 4, Compound of Example 9 and Compound of Example 11 were performed using the ‘esterase interference assay’, as described by Khot et al., with some modifications. Devonshire A L, The properties of a carboxylesterase from the peach-potato aphid, Myzus persicae (Sulz.) and its role in conferring insecticide resistance. Biochem J 167: 675-683 (1977)). Briefly, stock solutions of novel synergists (3 mM in acetone) were pre-incubated with pure E4, to give a final concentration of 0.03 mM, for 16 h at 4° C. Aliquots (15 μl ) of E4, E4+Compound of Example 2, E4+Compound of Example 3, E4+Compound of Example 4, E4+Compound of Example 9 and E4+Compound of Example 11 were incubated for 1 h with 60 μl of serial dilutions of azamethiphos in 0.02M phosphate buffer, pH 7, in separate wells of a NUNC microplate. Aliquots (25 p1) of house fly head homogenate (source of AChE) were added to each well and incubated for 15 minutes at room temperature. E4 in acetone and buffer only served as the positive and the negative controls respectively. AChE activity was measured at 405 nm using a Tmax kinetic microplate reader (Molecular Devices, Menlo Park, Calif.). Readings were taken automatically for 10 min at 10 s intervals. The rate (mOD min^−1) was calculated by the integrated software, Softmax Pro 4.6. All treatments were performed in triplicate.
No added esterase is giving 0% esterase protection and uninhibited esterase (E4) is giving 100% protection.
The materials and procedure as stated in Example 13, paragraphs 13.1, 13.1.2, 13.1.2.1 and 13.1.2.2. have been used and the following results have been obtained: […]

Myzus persicae = assay: Topical application bioassay on aphid clones: imidacloprid with or without synergist pre-treatment; details: aphid clone 5191A
Experimental: Aphid clones were reared on Chinese cabbage (Brassica rapa L. var. Pekinensis c.v Wong Bok) (Brassicaceae) leaves held in small plastic box-cages maintained at 18±2° C. with a 16:8 h light:dark photoperiod (Blackman R L, Variation in the photoperiodic response within natural populations of Myzus persicae (Sulzer). Bull Ent Res 60: 533-546 (1971)).
Clone 4106A is a laboratory insecticide-susceptible standard2 . […] Both aphid clones have been established from single parthenogenetic M. persicae females (Foster S P, Denholm I, Thompson R, Poppy G M, Powell W, Reduced response of insecticide-resistant aphids and attraction of parasitoids to alarm pheromone; a potential fitness trade-off. Bull Ent Res 95: 37-46 (2005)).
12.1.2 Topical Application Bioassay with 5191A Aphid Clone Young apterae were transferred to the abaxial surface of Chinese cabbage leaf discs (10 adults per leaf disc, at least 3 replicates per concentration) held on 1% agar in plastic containers (4 cm in diameter). The upper edge of each container was coated with Fluon (Whitford Plastics, UK) to prevent subsequent aphid escape from the leaf surface. After allowing 2 h for the aphids to settle, each was dosed with 0.25 μl of either 1 g L^−1 Compound of Example 3 dissolved in acetone or acetone only. After 4 h aphids were further treated with 0.25 μl imidacloprid in acetone (96% AR) using a
Burkard microapplicator (Burkard, Rickmansworth, UK). Controls were treated with acetone only. Treated aphids were stored at 18±2° C. and 16 h light: 8 h dark photoperiod. All bioassays were scored at the endpoint of 72 h after treatment. Adults incapable of co-ordinated movement (after gentle touching with a paint brush if necessary) were scored as dead. All bioassays were completed in triplicate.

In the case of CC#CCOc1cc2c(cc1CCC)OCO2 [Example 3, 5-(but-2-ynyloxy)-6-propyl-benzo[1.3]dioxole], the “Reduction of esterase protection, comparison in words” value ([1]; E4 esterase interference assay, Examples 13 and 16) is reported as “better activity than compounds 4, 7, respectively”, the “Esterase protection (%) after pre-incubation with compound” value ([1]; Table 2 (Example 13), 0.03 mM compound pre-incubated with E4 16 h at 4° C.) is reported as 0.97% and the “Esterase protection (%) after pre-incubation with compound” value ([1]; second 'TABLE 3' (Example 16), procedure as Example 13) is reported as 0.98%. The “LC50 of imidacloprid after pre-treatment with the synergist” value (Myzus persicae; FE4(R3), 0.25 μl of 1 g L^−1 synergist 4 h before imidacloprid, scored 72 h) was 1.25 ppm and the “SF, synergism factor (LC50 unsynergised / LC50 synergised)” value (Myzus persicae; imidacloprid plus 1 g L^−1 synergist pre-treatment) was 72.4.
